In test [1] the target is SARS-CoV-2 main protease (M^pro) (Severe acute respiratory syndrome coronavirus 2, UniProt P0DTD1). The test can be described thus: biochemical. As to conditions: for inhibition at 20 µM: read-out: inhibition against M^pro.
For the next test, the target named is EV-A71 3C protease (Human enterovirus 71, UniProt Q66478). The test can be described thus: biochemical.
The target of another test is T1, EV-A71 2A protease (Human enterovirus 71, UniProt Q66478).
T1 sequence (Q66478 863-1012 limits assumed): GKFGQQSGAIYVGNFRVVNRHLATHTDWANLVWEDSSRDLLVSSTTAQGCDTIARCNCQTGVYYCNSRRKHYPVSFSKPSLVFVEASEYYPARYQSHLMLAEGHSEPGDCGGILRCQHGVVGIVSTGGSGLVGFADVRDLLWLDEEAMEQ
In words: biochemical.

For test [2], the system named is influenza virus A/California/07/2009 (H1N1). The test can be described thus: Influenza A virus plaque reduction assay. The format is cell-based. As to conditions: read-out: A/California/07/2009 (H1N1) antiviral activity (EC50). (In general: Plaques are areas of infected cells; plaque reduction assays count them against a control.)
In the next test the target is SARS-CoV-2 M^pro (Severe acute respiratory syndrome coronavirus 2, UniProt P0DTD1). In kind it is binding.
In the next test the test system is SARS-CoV 3CL^pro (M^pro). As to conditions: read-out: IC50 against SARS-CoV 3CL^pro (M^pro); cited from earlier work.
Setting [3] is: 8 µM protein, 4 mM DTT, ligand 12.5 µM (62: 25 µM), up to two ligands per dimer.

Like-named read-outs stand apart in the source and are kept apart here. Peptide text beside a SMILES is read from it. * marks the point of attachment. Cbz = O=C(OCc1ccccc1)*

Data on 11 molecules can be found in publication PMC7294525 (Cell Research, 2020).

Sequence of EV-A71 3C protease (Q66478 1549-1731): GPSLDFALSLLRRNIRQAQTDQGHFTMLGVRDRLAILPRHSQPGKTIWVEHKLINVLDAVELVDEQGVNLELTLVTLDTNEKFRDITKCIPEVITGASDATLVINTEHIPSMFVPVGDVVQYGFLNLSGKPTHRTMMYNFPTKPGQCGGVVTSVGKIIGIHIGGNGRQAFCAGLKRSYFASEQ

One may read the IC50 as the point on the concentration scale where inhibition reaches its midpoint. The molecule `CN(C)C(=O)COC(=O)Cc1ccc(OC(=O)c2ccc(NC(=N)N)cc2)cc1` [compound 39, camostat] yielded a 50% inhibitory concentration (IC50) in test [1] of over 20 µM.

For orientation: inhibition means the drop in the measured response relative to a control, in per cent. Consider `CCCC[C@H](NC(=O)[C@@H]1[C@@H]2[C@H](CN1C(=O)[C@@H](NC(=O)NC1(CS(=O)(=O)C(C)(C)C)CCCCC1)C(C)(C)C)C2(C)C)C(=O)C(=O)NC1CC1` [compound 29, narlaprevir], for which the inhibition at 20 µM in test [1] was over 60%. For the same molecule, the concentration for half-maximal inhibition (IC50) against EV-A71 3C protease and against EV-A71 2A protease was over 20 µM each time.

Consider GC-376 [compound 64], for which the “activity against EV-A71 3C protease” value at EV-A71 3C protease was “potent inhibition”. Besides, the “activity against EV-A71 2A protease” value at EV-A71 2A protease was “inactive”. In addition, the EC50 in test [2] (plaque assay) is over 20 µM.

As for `CC(C)(C)NC(=O)N[C@H](C(=O)N1C[C@H]2[C@@H]([C@H]1C(=O)NC(CC1CCC1)C(=O)C(N)=O)C2(C)C)C(C)(C)C` (stereo partly shown) [compound 28, boceprevir], in test [1], the inhibition at 20 µM is over 60%. Further, the IC50 against EV-A71 3C protease and against EV-A71 2A protease was over 20 µM throughout. For the same molecule, the “binding stoichiometry by native MS” value on SARS-CoV-2 M^pro is recorded as “one drug per protomer”. In addition, the EC50 in test [2] was over 20 µM.

Molecule `CC(C)[C@H](NC(=O)OCc1ccccc1)C(=O)N[C@H](C=O)Cc1ccccc1` [compound 57, calpain inhibitor III] (Cbz-Val-Phe-aldehyde) yielded a concentration for half-maximal inhibition (IC50) in test [1] of over 20 µM.

Turning to `CCOC(=O)/C=C/[C@H](C[C@@H]1CCNC1=O)NC(=O)[C@@H](CC(=O)[C@@H](NC(=O)c1cc(C)on1)C(C)C)Cc1ccc(F)cc1` [compound 65, rupintrivir], on EV-A71 3C protease, the “activity against EV-A71 3C protease” value is on record as “potent inhibition”. Further, in the test with SARS-CoV 3CL^pro (M^pro), the IC50 was over 100 µM. In addition, the “activity against EV-A71 2A protease” value at EV-A71 2A protease is “inactive”.

Consider `COc1ccc2c(O[C@@H]3C[C@H]4C(=O)N[C@]5(C(=O)NS(=O)(=O)C6CC6)C[C@H]5/C=C\CCCCN(C)C(=O)[C@@H]4C3)cc(-c3nc(C(C)C)cs3)nc2c1C` [compound 24, simeprevir], for which the inhibition at 20 µM in test [1] was over 60%.

On to calpain inhibitor XII [compound 62], for which the “binding stoichiometry by native MS” value at SARS-CoV-2 M^pro (setting [3]) is listed as “one drug per protomer”. Further, the EC50 in test [2] (plaque assay) was over 20 µM.

As for `CC(C)C[C@@H](C=O)NC(=O)[C@H](CC(C)C)NC(=O)[C@H](CC(C)C)NC(=O)OCc1ccccc1` [compound 43, MG-132] (Cbz-Leu-Leu-Leu-aldehyde), the inhibition at 20 µM in test [1] is over 60%. Besides, the half-inhibitory concentration (IC50) against EV-A71 3C protease and on EV-A71 2A protease was over 20 µM each time.

For the molecule calpain inhibitor II [compound 61], at SARS-CoV-2 M^pro (setting [3]), the “binding stoichiometry by native MS” value is “one drug per protomer”. For the same molecule, the EC50 in test [2] (plaque assay) is over 20 µM.

For the molecule `Cc1cccc(C)c1OCC(=O)N[C@@H](Cc1ccccc1)[C@@H](O)C[C@H](Cc1ccccc1)NC(=O)[C@H](C(C)C)N1CCCNC1=O` [compound 10, lopinavir], the 50% inhibitory concentration (IC50) in test [1] is over 20 µM.
